The values that follow come from US20040138237A1, “Novel injectable depot formulations” (Pfizer Inc, priority 2002, published 2004).

Structures are written as SMILES.

The data set can be described thus: Solubilization of ziprasidone mesylate in concentrated aqueous SBECD solution (concentration, HPLC potency). Type of data set: physicochemical. The method, then:
This particular example employs a high concentration of SBECD to form an aqueous solution of ziprasidone at about 80 mgA/ml with about 56% SBECD. To facilitate drug dissolution, a pre-weighed amount of SBECD (gram weight SBECD equivalent to ml of depot formulation being prepared) was dissolved in water by heating in a water bath at 50° C. Ziprasidone mesylate was added in about 50 mg increments while heat was supplied to maintain the system at 50-60° C. A total of 572.99 mg Ziprasidone mesylate was added to 3 ml of 100% SBECD solution resulting in formation of 140 mgA/ml (191 mg/ml) clear viscous solution. The above solution was cooled to room temperature, and the solution remained clear for 2 weeks. Due to volume expansion, the final concentration of ziprasidone was about 80 mgA/ml with 56% cyclodextrin.
The stock solution was prepared using the same method as described above, however due to the higher solution volume (20 ml), the dissolution time was much longer (over 4 hours) even though micronized ziprasidone mesylate was used. During compounding, significant volume expansion was noted. To correct for the volume expansion, the specific gravity of the solution was determined to be 1.188 gm/ml. The volume of water used to prepare this solution was 20 ml, however, the final volume of the solution was 36.6 ml, and the weight of the solution was 43.5 gm. Therefore, taking into consideration 83% volume expansion, the corrected concentrations of drug and SBECD in this solution are 77 mgA/ml and 55% w/v, respectively.
The extent of solubilization was further confirmed by preparation of 82 mgA/ml ziprasidone solution with 59% SBECD using the same method. Viscosity was greater than 160 cps.

For `O=C1Cc2cc(CCN3CCN(c4nsc5ccccc45)CC3)c(Cl)cc2N1` [ziprasidone], the “corrected concentration of drug in solution” value (55% w/v SBECD, corrected for 83% volume expansion, scaled-up stock solution) is reported as 77 mgA/ml. For the same compound, the “potency of solution by HPLC potency method” value (scaled-up stock solution, 55% w/v SBECD) is on record as 75 mgA/ml. In addition, the “final concentration of ziprasidone in clear aqueous solution” value (with 56% cyclodextrin (SBECD), after volume expansion) is on record as “about 80 mgA/ml”.
